A word on the inhibition: it is the change of the read-out against control, counted positive when it falls. The IC50 is the concentration needed to halve the response being measured. Usually ED50 stands for the dose that gives a 50% effect, or the effect in half of the subjects. Higher therefore signals a need for a large dose.

Here are results for 19 molecules from US12195467B2, “Compound having TrkA inhibitory activity and pharmaceutical composition, for preventing or alleviating pain, containing same as active ingredient” (JBKLAB CO., LTD., priority 2018, dated 2025).

In assay [1] the target is T1, TrkA (Homo sapiens, UniProt P04629).
T1 construct: purchased MBL International (CycLex) CY-1091
T1 sequence (P04629 33-796): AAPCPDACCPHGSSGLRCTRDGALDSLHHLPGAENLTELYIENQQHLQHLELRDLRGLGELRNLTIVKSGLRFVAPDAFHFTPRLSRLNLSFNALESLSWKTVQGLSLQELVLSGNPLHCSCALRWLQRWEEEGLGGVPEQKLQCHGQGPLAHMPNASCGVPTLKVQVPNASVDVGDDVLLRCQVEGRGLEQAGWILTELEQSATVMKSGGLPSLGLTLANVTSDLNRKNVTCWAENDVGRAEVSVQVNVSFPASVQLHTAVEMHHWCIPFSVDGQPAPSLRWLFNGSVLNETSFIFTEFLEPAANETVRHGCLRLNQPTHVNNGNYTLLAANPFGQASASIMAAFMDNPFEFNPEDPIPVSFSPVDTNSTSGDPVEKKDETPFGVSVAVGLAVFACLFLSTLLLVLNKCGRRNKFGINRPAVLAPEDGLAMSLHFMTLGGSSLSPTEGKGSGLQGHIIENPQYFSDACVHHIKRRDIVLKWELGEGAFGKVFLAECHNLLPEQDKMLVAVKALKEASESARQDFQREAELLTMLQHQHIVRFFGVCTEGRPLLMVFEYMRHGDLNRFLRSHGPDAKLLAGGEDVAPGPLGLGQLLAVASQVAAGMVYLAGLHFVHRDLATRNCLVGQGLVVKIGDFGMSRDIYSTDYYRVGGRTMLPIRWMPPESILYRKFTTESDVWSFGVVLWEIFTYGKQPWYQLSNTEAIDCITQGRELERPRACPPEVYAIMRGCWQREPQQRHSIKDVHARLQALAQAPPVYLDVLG
In words: TrkA inhibitory activity, CycLex TrkA kinase assay/inhibitor screening kit. In kind it is biochemical. Conditions: for inhibition at 1 µM: compound 1 μM, read-out: % inhibition rate (based on 1 μM). Here is the method: The TrkA inhibitory activity of the compounds was evaluated using CycLex® TrkA kinase assay/inhibitor screening kit of MBL International (Cat No. CY-1091). The test was carried out according to the analysis method provided by the manufacturer. The test method is as follows.
1. 1× wash buffer was prepared by diluting 10× wash buffer in ddH2O.
2. 20×ATP solution (1.25 mM) was prepared by adding 1.6 mL of distilled water to the tube containing ATP dissolved in NA2 salt and freeze-dried.
4. A working solution mixture and a solution of the appropriate concentration of the example compound to evaluate the activity of the example compound were prepared and dispensed into a 96-well plate as shown in table below.
5. After dispensing the solutions into a 96-well plate, the plate was incubated at 30° C. for 30 minutes.
6. After incubation of the plate at 30° C. for 30 minutes, 200 μL of 1× wash buffer was added into each well of the plate, followed by washing. This process was repeated 5 times.
7. After washing the plate, 100 μL of HRP conjugated detection antibody (PX-39) was added into each well of the plate, followed by reaction at room temperature for 60 minutes.
8. Upon completion of the reaction, 200 μL of 1× wash buffer was added into each well of the plate, followed by washing. This process was repeated 5 times.
9. After washing the plate, 100 μL of substrate reagent containing chromogenic substrate and tetra-methylbenzidine (TMB) was added into each well of the plate, followed by incubation at room temperature for 5-15 minutes.
10. Upon completion of the reaction, 100 μL of stop solution (1 N H2SO4) was added into each well of the plate, followed by measuring OD450 within 30 minutes.

Assay [2] addresses T2, TrkB (Homo sapiens, UniProt Q16620).
T2 construct: host or cells: U2OS
Nature of the assay: PathHunter eXpress TrkB functional assay kit (U2OS cells, agonist BDNF). It counts as cell-based. Conditions: for inhibition at 1 µM: compound 1 μM, read-out: TrkB % inhibition rate (based on 1 μM). Here is the method:
(§1) The inhibitory activity of the example compounds against TrkB and TrkC was evaluated using PathHunter® eXpress TrkB or TrkC functional assay kit (Product Code: 93-0463E3 and 93-0464E3) of DiscoverX. The test was carried out according to the analysis method provided by the manufacturer. The test was carried out as follows over 2 or 3 days depending on the conditions of cells.
(§2) 1. Before starting the experiment, the cell plating (CP) reagent stored at −80° C. was dissolved in a 37° C. water bath.
(§3) 2. When the CP reagent was dissolved, cell vials for TrkB or TrkC were prepared to be dissolved.
(§4) 3. Two U2OS cell vials (TrkB kit & TrkC kit) stored in liquid nitrogen were thawed.
(§5) 4. 500 μL of CP reagent was added to the thawed cell vial, and the cells were sufficiently mixed by pipetting and transferred to a Conical tube in which 11.5 mL of CP reagent was dispensed.
(§6) 5. 12 mL cells (1×10^6 cells in CP reagent) were seeded on a 96-well tissue culture treated plate (100 μL/well), followed by culture in a 37° C., 5% CO2 humidified incubator for 24 hours or 48 hours.
(§7) Day 2 or Day 3: Treatment of Test Material
(§8) 1. Test material, agonist and antagonist were prepared as stock solutions according to the experiment design. • Test material: 10 mM Stock solution in DMSO • Antagonist (GNF-5837): 10 mM Stock solution in 1.8674 mL DMSO • Agonist: TrkB agonist→BDNF, TrkC agonist→NT-3
(§9) 2. 10 mM stock solutions of teat material and antagonist having the concentration of 22 times more concentrated than the final screening concentration were prepared according to the experiment design.
(§10) 3. Each well of the 96-well culture plate containing cells was treated with 5 μL of the solutions of teat material and antagonist having the concentration of 22 times more concentrated than the final screening concentration (#2), followed by incubation at 37° C. for 60 minutes.
(§11) 4. During the incubation, 10 μg/mL stock solution of each agonist for TrkB and TrkC was prepared using a reconstitution buffer for the purpose of the experiment, and each well of the plate was treated with 5 μL of the prepared solution, followed by incubation at 19-25° C. for 3 hours.
(§12) 5. During the incubation, a detection reagent working solution (4.75 ml Cell assay buffer, 1.25 ml Substrate Reagent 1, 0.25 ml Substrate Reagent 2) was prepared. Upon completion of the incubation, 55 μL of the working solution was added into each well of the plate.
(§13) 7. The plate was incubated at room temperature for 60 minutes in a dark place, and the […] was measured with a luminescence plate reader.

The target of assay [3] is T3, TrkC (Homo sapiens, UniProt Q16288).
T3 construct: host or cells: U2OS
T3 sequence (Q16288 32-839): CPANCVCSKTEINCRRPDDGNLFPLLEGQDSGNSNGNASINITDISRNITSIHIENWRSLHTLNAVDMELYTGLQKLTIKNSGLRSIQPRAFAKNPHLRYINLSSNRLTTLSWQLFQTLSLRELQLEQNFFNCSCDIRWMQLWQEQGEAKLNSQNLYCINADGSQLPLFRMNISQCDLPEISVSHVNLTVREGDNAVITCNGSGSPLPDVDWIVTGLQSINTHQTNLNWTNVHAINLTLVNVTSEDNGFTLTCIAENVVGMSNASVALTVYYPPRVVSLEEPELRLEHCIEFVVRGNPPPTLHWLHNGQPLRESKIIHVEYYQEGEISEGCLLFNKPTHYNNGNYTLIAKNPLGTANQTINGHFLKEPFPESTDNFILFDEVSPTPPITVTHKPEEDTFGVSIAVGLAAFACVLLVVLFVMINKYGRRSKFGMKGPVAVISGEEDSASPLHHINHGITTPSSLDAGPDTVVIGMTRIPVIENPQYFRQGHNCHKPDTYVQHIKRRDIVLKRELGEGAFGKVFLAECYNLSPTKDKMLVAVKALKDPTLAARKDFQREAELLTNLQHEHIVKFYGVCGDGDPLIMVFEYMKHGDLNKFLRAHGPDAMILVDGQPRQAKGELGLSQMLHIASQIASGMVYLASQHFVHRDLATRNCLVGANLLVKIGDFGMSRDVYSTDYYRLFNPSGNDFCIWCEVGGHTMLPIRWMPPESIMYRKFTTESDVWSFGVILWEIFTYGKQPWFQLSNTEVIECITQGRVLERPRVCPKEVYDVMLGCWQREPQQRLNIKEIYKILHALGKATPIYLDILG
Nature of the assay: PathHunter eXpress TrkC functional assay kit (U2OS cells, agonist NT-3). In kind it is cell-based. Conditions: compound 1 μM, read-out: TrkC % inhibition rate (based on 1 μM). Here is the method:
as §1, §2, §3, §4, §5, §6, §7, §8, §9, §10, §11, §12, §13

Assay [4] deals with postoperative pain animal model. Nature of the assay: Pharmacological activity in postoperative pain model (von-Frey mechanical allodynia, 50% withdrawal threshold). It counts as in vivo, Sprague-Dawley male rats. Here is the method:
Sprague-Dawley male rats weighing around 150 g (Orient bio., Korea) were used. Rats were raised in an environment where a 12-hour light-dark cycle was maintained, 4 per transparent plastic cage covered with scob as bedding. Food and water were provided freely. To verify the analgesic effect of the example compounds, all rats were anesthetized with O2 delivered from the induction chamber at a ratio of 3:3 of isoflurane and operated. Anesthetized rats were placed on a 37° C. warm plate to prevent hypothermia during the operation. The ipsilateral sole (left) of the hind paw of the experimental animal was disinfected with 10% povidone-iodine solution, and incised to a length of 1 cm with a #11 surgical knife. The incision was made starting from 0.5 cm of the proximal edge of the heel through the skin and fascia on the side of the ipsilateral sole toward the toe. After the incision, a gentle pressure was applied to the incision site to stop the bleeding and the skin was sutured. The surgical site was sterilized with 10% povidone-iodine solution, and gentamicin (8 mg/kg) was administered intraperitoneally to prevent infection. The analgesic effect of the compound on postoperative pain was evaluated in the experimental animals 2 days after the surgery. […] The formula for calculating the 50% withdrawal threshold (g) is as follows. 50% Withdrawal threshold (g)=(10^(x+kd))/10^4 [Mathematical Formula 1] • x=the value of the last tested filament (log unit value). • k=the value indicating positive/negative reaction by up-down method. • d=the value fixed at 0.224 as the average difference between stimuli.

T2 sequence (Q16620 32-822): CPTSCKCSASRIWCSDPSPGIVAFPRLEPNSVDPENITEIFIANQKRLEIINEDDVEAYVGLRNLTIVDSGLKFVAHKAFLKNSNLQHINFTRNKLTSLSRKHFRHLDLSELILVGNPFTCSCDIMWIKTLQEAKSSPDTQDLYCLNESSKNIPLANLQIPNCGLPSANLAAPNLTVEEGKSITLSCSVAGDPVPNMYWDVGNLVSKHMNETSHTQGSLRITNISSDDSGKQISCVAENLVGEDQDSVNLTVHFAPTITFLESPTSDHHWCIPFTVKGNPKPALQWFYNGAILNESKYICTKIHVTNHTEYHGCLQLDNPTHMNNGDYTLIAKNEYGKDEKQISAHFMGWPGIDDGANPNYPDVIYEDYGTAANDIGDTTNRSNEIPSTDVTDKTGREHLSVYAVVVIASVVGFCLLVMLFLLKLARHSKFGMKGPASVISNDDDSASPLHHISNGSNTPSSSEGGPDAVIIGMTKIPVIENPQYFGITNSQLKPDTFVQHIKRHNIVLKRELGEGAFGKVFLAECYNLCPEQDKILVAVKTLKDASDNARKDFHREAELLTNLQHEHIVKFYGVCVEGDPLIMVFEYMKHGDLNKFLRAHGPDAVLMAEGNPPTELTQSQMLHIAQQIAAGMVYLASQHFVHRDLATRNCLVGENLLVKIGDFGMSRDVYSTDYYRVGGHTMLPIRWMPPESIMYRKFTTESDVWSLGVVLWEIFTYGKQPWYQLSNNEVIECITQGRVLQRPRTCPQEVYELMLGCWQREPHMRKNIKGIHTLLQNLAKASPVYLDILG

Turning to `CN1CCN(c2ccc(C(=O)Nc3c[nH]c4ncnc(N5CCC(N6CCCC6)CC5)c34)cc2)CC1` [Example 19, 4-(4-methylpiperazine-1-yl)-N-(4-(4-(pyrrolidine-1-yl)piperidine-1-yl)-7H-pyrrolo[2,3-d]pyrimidine-5-yl)benzamide], in assay [1], the inhibition at 1 µM is -1%.

With `CN1CCN(c2ccc(C(=O)Nc3c[nH]c4ncnc(-c5cnn(C6CCNCC6)c5)c34)cc2)CC1` [Example 17, 4-(4-methylpiperazine-1-yl)-N-(4-(1-(piperidine-4-yl)-1H-pyrazole-4-yl)-7H-pyrrolo[2,3-d]pyrimidine-5-yl)benzamide], the inhibition at 1 µM in assay [1] was -11%.

For `Cn1cc(-c2cnc3[nH]nc(Nc4cc(Cl)cc(Cl)c4)c3c2)cn1` [Example 6, N-(3,5-dichlorophenyl)-5-(1-methyl-1H-pyrazole-4-yl)-1H-pyrazolo[3,4-b]pyridine-3-amine], in assay [1], the inhibition at 1 µM turned out to be 32%.

Consider `CN1CCN(c2ccc(C(=O)Nc3c[nH]c4ncnc(N5CCC(C(N)=O)CC5)c34)cc2)CC1` [Example 20, 1-(5-(4-(4-methylpiperazine-1-yl)benzamido)-7H-pyrrolo[2,3-d]pyrimidine-4-yl)piperidine-4-carboxamide], for which the inhibition at 1 µM in assay [1] was found to be 4%.

Take `Clc1ccc(Nc2n[nH]c3cnc(-c4cnn(C5CCNCC5)c4)cc23)cc1Cl` [Example 2, N-(3,4-dichlorophenyl)-5-(1-(piperidine-4-yl)-1H-pyrazole-4-yl)-1H-pyrazolo[3,4-c]pyridine-3-amine]: the inhibition at 1 µM in assay [1] came to 6%.

With `CN1CCN(c2ccc(C(=O)Nc3c[nH]c4ncnc(-c5cc(Cl)c(O)c(Cl)c5)c34)cc2)CC1` [Example 24, N-(4-(3,5-dichloro-4-hydroxyphenyl)-7H-pyrrolo[2,3-d]pyrimidine-5-yl)-4-(4-methylpiperazine-1-yl)benzamide], in assay [1], the inhibition at 1 µM was found to be 49%.

Consider `Clc1cc(Cl)cc(Nc2n[nH]c3cnc(-c4cnn(C5CCNCC5)c4)cc23)c1` [Example 3, N-(3,5-dichlorophenyl)-5-(1-(piperidine-4-yl)-1H-pyrazole-4-yl)-1H-pyrazolo[3,4-c]pyridine-3-amine], for which the inhibition at 1 µM in assay [1] turned out to be 6%.

As for `Cn1cc(-c2cnc3[nH]nc(Nc4cccc(Cl)c4)c3c2)cn1` [Example 4, N-(3-chlorophenyl)-5-(1-methyl-1H-pyrazole-4-yl)-1H-pyrazolo[3,4-b]pyridine-3-amine], the inhibition at 1 µM in assay [1] worked out at 59%.

With `Oc1c(Cl)cc(-c2c[nH]c3ncnc(NC4CCC(O)CC4)c23)cc1Cl` (centres unmarked) [Example 23, 2,6-dichloro-4-(4-((1s,4s)-4-hydroxycyclohexylamino)-7H-pyrrolo[2,3-d]pyrimidine-5-yl)phenol], the IC50 in assay [1] was 0.0579 µM; in assay [2], 0.894 µM. The values for the inhibition at 1 µM in assay [1], in assay [2] and in assay [3] were 100%, 56% and 15%, respectively.

In the case of `Clc1cc(Cl)cc(Nc2n[nH]c3ncc(-c4cnn(C5CCNCC5)c4)cc23)c1` [Example 7, N-(3,5-dichlorophenyl)-5-(1-(piperidine-4-yl)-1H-pyrazole-4-yl)-1H-pyrazolo[3,4-b]pyridine-3-amine], in assay [1], the inhibition at 1 µM was determined as 37%.

For the molecule `COc1ccc(Cn2cc(NC(=O)c3ccc(N4CCN(C)CC4)cc3)c3c(-c4cnn(C5CCNCC5)c4)ncnc32)cc1` [Example 16, N-(7-(4-methoxybenzyl)-4-(1-(piperidine-4-yl)-1H-pyrazole-4-yl)-7H-pyrrolo[2,3-d]pyrimidine-5-yl)-4-(4-methylpiperazine-1-yl)benzamide], in assay [1], the inhibition at 1 µM came to 8%.

Molecule `O=C(Nc1n[nH]c2ncc(-c3cnn(C4CCNCC4)c3)cc12)c1ccc(F)cc1` [Example 22, 4-fluoro-N-(5-(1-(piperidine-4-yl)-1H-pyrazole-4-yl)-1H-pyrazolo[3,4-b]pyridine-3-yl)benzamide] came in with an IC50 in assay [1] of 0.436 µM. For the same molecule, the results for the inhibition at 1 µM in assay [1], in assay [2] and in assay [3] were 99%, -2% and 20%, respectively.

`CN1CCN(c2ccc(C(=O)Nc3c[nH]c4ncnc(N5CCCC(NC(N)=O)C5)c34)cc2)CC1` (centres unmarked) [Example 21, 4-(4-methylpiperazine-1-yl)-N-(4-(3-ureidopiperidine-1-yl)-7H-pyrrolo[2,3-d]pyrimidine-5-yl)benzamide]: in assay [1], the inhibition at 1 µM amounted to 0%.

On to `Clc1cccc(Nc2n[nH]c3cnc(-c4cccnc4)cc23)c1` [Example 1, N-(3-chlorophenyl)-5-(pyridine-3-yl)-1H-pyrazolo[3,4-c]pyridine-3-amine], for which the inhibition at 1 µM in assay [1] was determined as 12%.

`CN1CCN(c2ccc(C(=O)Nc3n[nH]c4ncc(-c5cnn(C6CCNCC6)c5)cc34)cc2)CC1` [Example 8, 4-(4-methylpiperazine-1-yl)-N-(5-(1-(piperidine-4-yl)-1H-pyrazole-4-yl)-1H-pyrazolo[3,4-b]pyridine-3-yl)benzamide]: the inhibition at 1 µM in assay [1] was 99%.

Turning to `CC(C)C[C@H](CN)CC(=O)O` [Lyrica, Pregabalin, reference compound], in assay [4] (Rattus norvegicus, po, 48 h), the 50% effective dose (ED50) is 17.5 mg/kg. Also, in assay [4] (oral, rat postoperative pain model, 2 days after surgery), the “Maximum duration of drug efficacy” value is 1.0 h.

As to `CN1CCN(c2ccc(C(=O)Nc3c[nH]c4ncnc(-c5cnn(C6CCN(C(=O)OC(C)(C)C)CC6)c5)c34)cc2)CC1` [Example 18, tert-butyl 4-(4-(5-(4-(4-methylpiperazine-1-yl)benzamido)-7H-pyrrolo[2,3-d]pyrimidine-4-yl)-1H-pyrazole-1-yl)piperidine-1-carboxylate], the inhibition at 1 µM in assay [1] came to 24%.

`CC(C)NC(=O)Nc1cccc(-c2cnc3[nH]nc(NC(=O)c4ccc(N5CCN(C)CC5)cc4)c3c2)c1` [Example 9, N-(5-(3-(3-isopropylureido)phenyl)-1H-pyrazolo[3,4-b]pyridine-3-yl)-4-(4-methylpiperazine-1-yl)benzamide]: the inhibition at 1 µM was 81% in assay [1], 1% in assay [2] and -20% in assay [3].

Take `Cn1cc(-c2cnc3[nH]nc(Nc4ccc(Cl)c(Cl)c4)c3c2)cn1` [Example 5, N-(3,4-dichlorophenyl)-5-(1-methyl-1H-pyrazole-4-yl)-1H-pyrazolo[3,4-b]pyridine-3-amine]: the inhibition at 1 µM in assay [1] was 32%.
